Experimental findings from paper PMC6556873, “Rapid Covalent-Probe Discovery by Electrophile-Fragment Screening” (Journal of the American Chemical Society, 2019) are described below.

SMILES strings stand for the structures. Like-named read-outs stand apart in the source and are kept apart here.

Series [1] deals with T1, NUDT7 (Homo sapiens, UniProt P0C024).
T1 construct: residues 14-235, E. coli, pNIC28-Bsa4, N-terminal His6 tag removed by TEV, construct 26672 Da
Details: Intact protein LC/MS covalent labelling, fragments in pools of five, 200 uM each, 4 °C. The following applies: 24 h, 4 °C, pool of five; 200 µM; covalent.

The target of series [2] is T2, PCAF (Homo sapiens, UniProt Q92831).
T2 construct: gene KAT2B
Also on record: Intact protein LC/MS covalent labelling, fragments in pools of five, 200 uM each, 4 °C. Particulars: 24 h, 4 °C, pool of five; 200 µM; covalent.

Series [3] concerns the target T3, BSA (Bos taurus, UniProt P02769).
T3 construct: gene ALB
Also on record: Intact protein LC/MS covalent labelling, fragments in pools of five, 200 uM each, 4 °C. Particulars: 24 h, 4 °C, pool of five; 200 µM; covalent.

Series [4] deals with T4, OTUB2 (OTUB2A) (Homo sapiens, UniProt Q96DC9).
T4 construct: full length residues 1-234, E. coli BL21(DE3)-R3, His tag removed by TEV, construct 27312 Da
T4 sequence (Q96DC9 1-234): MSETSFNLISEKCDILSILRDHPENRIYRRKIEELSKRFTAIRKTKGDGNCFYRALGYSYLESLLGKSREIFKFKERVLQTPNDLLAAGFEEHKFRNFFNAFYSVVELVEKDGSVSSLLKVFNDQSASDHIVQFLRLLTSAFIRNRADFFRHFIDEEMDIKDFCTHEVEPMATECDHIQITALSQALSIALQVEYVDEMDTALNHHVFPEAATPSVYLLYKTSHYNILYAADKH
Details: Intact protein LC/MS covalent labelling, fragments in pools of five, 200 uM each, 4 °C. Particulars: 24 h, 4 °C, pool of five; 200 µM; covalent.

Series [5] in a line: in vitro. Details: species or system HB2, HEK293. The following applies: human, ccd841 cells.
The nature of series [6]: in vitro. Also on record: species or system HB2, CCD841. The following applies: human, hek293 cells.
Series [7] in a line: in vitro. Also on record: species or system CCD841, HEK293. Particulars: human, hb2 cells, read-out: HB-2 Cells Viability (%).

T2 sequence (Q92831 whole entry): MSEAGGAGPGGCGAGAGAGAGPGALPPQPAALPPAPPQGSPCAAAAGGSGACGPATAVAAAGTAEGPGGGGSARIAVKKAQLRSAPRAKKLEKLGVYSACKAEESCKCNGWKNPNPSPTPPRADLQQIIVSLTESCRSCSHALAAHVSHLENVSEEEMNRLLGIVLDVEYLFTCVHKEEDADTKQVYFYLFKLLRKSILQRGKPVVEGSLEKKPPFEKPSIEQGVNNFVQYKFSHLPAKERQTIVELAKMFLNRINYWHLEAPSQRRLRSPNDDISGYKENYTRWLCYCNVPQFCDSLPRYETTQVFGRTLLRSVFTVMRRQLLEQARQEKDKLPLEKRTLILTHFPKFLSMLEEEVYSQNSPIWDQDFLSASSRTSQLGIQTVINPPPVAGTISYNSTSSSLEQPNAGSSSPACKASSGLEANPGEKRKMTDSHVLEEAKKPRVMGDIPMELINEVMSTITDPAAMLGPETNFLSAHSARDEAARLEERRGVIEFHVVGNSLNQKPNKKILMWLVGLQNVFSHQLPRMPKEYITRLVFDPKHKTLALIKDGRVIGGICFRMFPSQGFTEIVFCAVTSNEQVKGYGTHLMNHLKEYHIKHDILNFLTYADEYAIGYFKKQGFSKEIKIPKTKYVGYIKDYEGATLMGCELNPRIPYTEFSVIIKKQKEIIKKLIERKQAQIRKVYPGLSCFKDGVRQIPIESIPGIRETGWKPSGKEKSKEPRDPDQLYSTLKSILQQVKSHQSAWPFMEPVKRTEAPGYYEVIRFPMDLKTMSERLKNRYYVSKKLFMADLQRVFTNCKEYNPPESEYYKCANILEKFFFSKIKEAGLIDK
T1 sequence (P0C024 14-235): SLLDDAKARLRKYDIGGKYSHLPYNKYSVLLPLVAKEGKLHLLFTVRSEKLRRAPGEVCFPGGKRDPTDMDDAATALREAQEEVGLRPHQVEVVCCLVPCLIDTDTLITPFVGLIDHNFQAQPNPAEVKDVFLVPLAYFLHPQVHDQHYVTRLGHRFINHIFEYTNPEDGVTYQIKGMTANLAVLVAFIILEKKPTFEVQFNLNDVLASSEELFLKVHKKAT
T3 sequence (P02769 whole entry): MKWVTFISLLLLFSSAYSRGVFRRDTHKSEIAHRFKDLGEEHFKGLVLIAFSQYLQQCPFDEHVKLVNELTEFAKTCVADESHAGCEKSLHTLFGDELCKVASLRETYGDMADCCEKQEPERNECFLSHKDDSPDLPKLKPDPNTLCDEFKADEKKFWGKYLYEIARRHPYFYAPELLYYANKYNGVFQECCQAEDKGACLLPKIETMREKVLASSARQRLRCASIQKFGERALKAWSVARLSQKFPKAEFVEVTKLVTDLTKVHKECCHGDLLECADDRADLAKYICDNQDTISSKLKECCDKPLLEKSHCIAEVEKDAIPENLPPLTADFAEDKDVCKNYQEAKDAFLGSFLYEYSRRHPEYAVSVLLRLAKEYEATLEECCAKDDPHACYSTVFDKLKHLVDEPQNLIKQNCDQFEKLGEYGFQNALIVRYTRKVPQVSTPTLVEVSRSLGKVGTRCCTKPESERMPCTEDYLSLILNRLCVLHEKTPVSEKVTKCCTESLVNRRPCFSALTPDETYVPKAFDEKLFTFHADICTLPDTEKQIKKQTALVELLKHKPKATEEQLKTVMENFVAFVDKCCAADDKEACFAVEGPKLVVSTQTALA

As usually defined, the viability is a read-out of living cells in per cent, often relative to untreated cells. Compound `O=C(CCl)N1CCN(Cc2ccccc2)C1=O` [PCM-0102919] registered an NUDT7 in series [1] of 0. This compound had a PCAF in series [2] of 0. The BSA in series [3] worked out at 0. The compound also had an OTUB2 in series [4] of 0.1. Also, the viability at 48 h, 10 µM in series [5] worked out at 96.2%; in series [6], 90.9%; in series [7], 102%.
Consider `O=C(CCl)NNC(=O)c1cc2c(s1)CCCC2` [PCM-0102142], for which, in series [1], the NUDT7 is listed as 0.09. This compound also yielded a PCAF in series [2] of 0. In addition, the BSA in series [3] is listed as 0. For the same compound, the OTUB2 in series [4] amounted to 1. Besides, the values for the viability at 48 h, 10 µM in series [5], in series [6] and in series [7] were 62.6%, 52.6% and 49%, respectively.
Take `C=CC(=O)N1CCC(n2nnc3c2CCCC3)CC1` [PCM-0102437]: in series [1], the NUDT7 is 0. In series [2], the PCAF is recorded as 0. Moreover, the BSA in series [3] turned out to be 0. This compound also displayed an OTUB2 in series [4] of 0. In addition, the viability at 48 h, 10 µM in series [5] stood at 92.9%; in series [6], 91.5%; in series [7], 106%.
For `O=C(CCl)NCc1cccc(Cl)c1` [PCM-0102174], in series [1], the NUDT7 was found to be 0. In series [2], the PCAF was 0. This compound registered a BSA in series [3] of 0. Moreover, in series [4], the OTUB2 came to 0.25. The viability at 48 h, 10 µM in series [5] was 79.9%; in series [6], 74.3%; in series [7], 83.4%.
As for `O=C(CCl)NC(=O)NC12CC3CC(CC(C3)C1)C2` [PCM-0102360], the NUDT7 in series [1] is on record as 0. This compound also gave a PCAF in series [2] of 0. Further, the BSA in series [3] is 0. Also, the OTUB2 in series [4] is reported as 0.12. In addition, the viability at 48 h, 10 µM in series [5] came out at 73.7%; in series [6], 46.7%; in series [7], 3.1%.
Take `Cl.O=C(CCl)N1CCN(c2ccccn2)CC1` [PCM-0102213]: the NUDT7 in series [1] amounted to 0. In series [2], this compound registered a PCAF of 0. Besides, in series [3], the BSA is reported as 0. In series [4], the OTUB2 is reported as 0. In addition, the values for the viability at 48 h, 10 µM in series [5], in series [6] and in series [7] were 94.7%, 81.6% and 84.5%, respectively.
As to `CN(CC(F)(F)F)C(=O)CCl` [PCM-0102674], the NUDT7 in series [1] was determined as 0.11. For the same compound, in series [2], the PCAF came out at 0. The compound also came in with a BSA in series [3] of 0. In addition, in series [4], the OTUB2 is reported as 0. Further, the viability at 48 h, 10 µM in series [5] is 105%; in series [6], 101%; in series [7] it was 101%.
In turn, `O=C(CCl)Nc1cc(Cl)ccc1-n1cncn1` [PCM-0102258] yielded an NUDT7 in series [1] of 0.21. Also, the PCAF in series [2] is 0. In series [3], this compound had a BSA of 0. Besides, the OTUB2 in series [4] is 0. Moreover, the values for the viability at 48 h, 10 µM in series [5], in series [6] and in series [7] were 51.7%, 11.7% and 53.8%, respectively.
In series [1], `C=CC(=O)NC1CCN(C(=O)NCC)C1` (stereo not drawn) [PCM-0103058] came in with an NUDT7 of 0. For the same compound, the PCAF in series [2] was found to be 0. In addition, in series [3], the BSA came out at 0. The same compound returned an OTUB2 in series [4] of 0. In addition, the figures for the viability at 48 h, 10 µM in series [5], in series [6] and in series [7] were 93.3%, 109% and 94.4%, respectively.
Consider `O=C(CCl)Nc1cc2c(cc1Cl)OCCO2` [PCM-0102585], for which the NUDT7 in series [1] was found to be 0.12. Further, in series [2], the PCAF came to 0. The BSA in series [3] is listed as 0. The compound further showed an OTUB2 in series [4] of 0. For the same compound, the viability at 48 h, 10 µM is 68% in series [5], 15% in series [6] and 38.7% in series [7].
`CC(c1ccc(F)cc1)N(C)C(=O)CCl` (stereo not drawn) [PCM-0102783] gave an NUDT7 in series [1] of 0.19. In series [2], this compound had a PCAF of 0. The same compound registered a BSA in series [3] of 0. Besides, the OTUB2 in series [4] worked out at 0. Besides, the viability at 48 h, 10 µM came to 47.8% in series [5], 30.3% in series [6] and 47.3% in series [7].
In series [1], `CC(C)NC(=O)NC(=O)CCl` [PCM-0102504] showed an NUDT7 of 0. In addition, the PCAF in series [2] stood at 0. Moreover, in series [3], the BSA amounted to 0. The compound also displayed an OTUB2 in series [4] of 0. For the same compound, the viability at 48 h, 10 µM in series [5] worked out at 81.5%; in series [6], 66.9%; in series [7], 92%.
In series [1], `Cc1ccc(C(=O)O)cc1NC(=O)CCl` [PCM-0102624] showed an NUDT7 of 0. The compound further registered a PCAF in series [2] of 0. In addition, in series [3], the BSA is recorded as 0. In addition, the OTUB2 in series [4] worked out at 0. In addition, the viability at 48 h, 10 µM in series [5] was found to be 108%; in series [6], 86.2%; in series [7], 102%.
As to `O=C(CCl)NC(=O)c1cccc2ccccc12` [PCM-0102694], in series [1], the NUDT7 is 0. In series [2], this compound yielded a PCAF of 0. Besides, the BSA in series [3] came to 0. In series [4], this compound returned an OTUB2 of 0. Also, the viability at 48 h, 10 µM was 112% in series [5], 111% in series [6] and 101% in series [7].
Regarding `CC(C)(C)NC(=O)NC(=O)CCl` [PCM-0102540], the NUDT7 in series [1] turned out to be 0. The compound also yielded a PCAF in series [2] of 0. Moreover, in series [3], the BSA came to 0. In series [4], this compound yielded an OTUB2 of 0. Besides, the viability at 48 h, 10 µM in series [5] came out at 140%; in series [6] it was 113%; in series [7], 111%.
For the compound `Cl.O=C(CCl)N1CCN(c2ncccn2)CC1` [PCM-0102093], the NUDT7 in series [1] is 0. The compound also showed a PCAF in series [2] of 0. In addition, the BSA in series [3] was 0. The OTUB2 in series [4] worked out at 0. The results for the viability at 48 h, 10 µM in series [5], in series [6] and in series [7] were 83.3%, 63.9% and 57.5%, respectively.
Consider `O=C(CCl)NC(=O)NCc1ccco1` [PCM-0102494], for which the NUDT7 in series [1] turned out to be 0. Also, the PCAF in series [2] was found to be 0. Moreover, in series [3], the BSA worked out at 0. In addition, the OTUB2 in series [4] turned out to be 0. Besides, the viability at 48 h, 10 µM is 85.4% in series [5], 86.6% in series [6] and 75.2% in series [7].
In turn, `O=C(CCl)Nc1cccc2ncccc12` [PCM-0102097] came in with an NUDT7 in series [1] of 0. This compound had a PCAF in series [2] of 0. Moreover, in series [3], the BSA is reported as 0. Further, in series [4], the OTUB2 was 0.42. Moreover, the viability at 48 h, 10 µM in series [5] is 51.3%; in series [6] it was 27.9%; in series [7] it was 49%.
`CC(c1ccc(Cl)cc1)N(C)C(=O)CCl` (stereo not drawn) [PCM-0102556] gave an NUDT7 in series [1] of 0.39. The same compound showed a PCAF in series [2] of 0. Further, in series [3], the BSA was found to be 0. In series [4], the OTUB2 was determined as 0. The results for the viability at 48 h, 10 µM in series [5], in series [6] and in series [7] were 11.5%, 3.1% and 4.9%, respectively.
As to `C=CC(=O)N1CCC(N)CC1.Cl` [PCM-0102844], the NUDT7 in series [1] stood at 0.2. Besides, in series [2], the PCAF was 0.25. Moreover, the BSA in series [3] turned out to be 0. The OTUB2 in series [4] came to 0. Also, the values for the viability at 48 h, 10 µM in series [5], in series [6] and in series [7] were 98.2%, 124% and 109%, respectively.
Take `CN(Cc1nc2ccccc2s1)C(=O)CCl` [PCM-0102988]: the NUDT7 in series [1] was determined as 0.3. The same compound registered a PCAF in series [2] of 0. This compound also returned a BSA in series [3] of 0. Moreover, in series [4], the OTUB2 came to 0. Besides, the viability at 48 h, 10 µM in series [5] stood at 42.8%; in series [6], 2.9%; in series [7] it was 9.3%.
The compound `CS(=O)(=O)c1ccc(Cl)c(NC(=O)CCl)c1` [PCM-0102220] showed an NUDT7 in series [1] of 0.05. In addition, the PCAF in series [2] came to 0. Moreover, the BSA in series [3] is 0. In series [4], this compound showed an OTUB2 of 0. Further, the viability at 48 h, 10 µM in series [5] was 60.9%; in series [6] it was 21.3%; in series [7], 45.5%.
In series [1], `O=C(CCl)Nc1cc2c(cc1Cl)OCCCO2` [PCM-0102331] registered an NUDT7 of 0.36. Besides, the PCAF in series [2] came out at 0. The same compound registered a BSA in series [3] of 0. In series [4], the OTUB2 was determined as 0.26. The viability at 48 h, 10 µM is 57.1% in series [5], 10.3% in series [6] and 17.2% in series [7].
Take `O=C(CCl)N=c1sccn1Cc1ccccc1Cl` [PCM-0102550]: the NUDT7 in series [1] is 0.11. In addition, in series [2], the PCAF amounted to 0. In series [3], this compound yielded a BSA of 0. This compound gave an OTUB2 in series [4] of 0. The viability at 48 h, 10 µM was determined as 3.8% in series [5], 6% in series [6] and 27.2% in series [7].
